Data: article PMC11264232, “Are the metal identity and stoichiometry of metal complexes important for colchicine site binding and inhibition of tubulin polymerization?” (Dalton Transactions (Cambridge, England : 2003), 2024)

Key:
MOLT-4 = test: NCI-60 five-dose screen; type: cell-based, human; details: Leukemia
Experimental: (§2) This evaluation involved the utilization of the NCI 60 human tumor cell line panel.[57]
(§3) The NCI-60 SRB assay was performed as described previously.[76] GI50 values (the concentration of the metal complex causing 50% growth inhibition), TGI value (the concentration of the complex causing 0% cell growth), and LC50 (the concentration of the complex causing 50% cell death) were interpolated from dose–response curves that were plots of percentage cell growth versus concentration of test compounds.

HCC-2998 = test: NCI-60 five-dose screen; type: cell-based, human; details: Colon cancer
Source text: (§4) The proligands HL^1–HL^3 and their corresponding metal complexes 1–8 prepared in this study were subjected to evaluation of their anticancer potential, including selectivity towards specific types of cancer: leukemia, non-small cell lung (NSCLC), colon, central nervous system (CNS), melanoma, ovarian, renal, prostate and breast cancers, by the National Cancer Institute's Developmental Therapeutics Program. This evaluation involved the utilization of the NCI 60 human tumor cell line panel.[57]
as §3

[1] = Reduction by glutathione (GSH), UV–vis; type: physicochemical; details: pH 7.4, glove box
Source text: The reduction of complexes 1, 2, 4 and 5 by glutathione (GSH), one of the major cellular reductants, was investigated at pH 7.4 by recording UV–vis spectra in a glove box.

RPMI-8226 = test: NCI-60 five-dose screen; type: cell-based, human; details: Leukemia
Experimental: as §2, §3

MDA-MB-468 = test: NCI-60 five-dose screen; type: cell-based, human; details: Breast cancer
Source text: as §4, §3

COLO 205 = test: NCI-60 five-dose screen; type: cell-based, human; details: Colon cancer
Source text: as §4, §3

HOP-92 = test: NCI-60 five-dose screen; type: cell-based, human; details: Non-Small Cell Lung Cancer
Source text: as §4, §3

SF-539 = test: NCI-60 five-dose screen; type: cell-based, human; details: CNS cancer
Source text: as §4
(§5) GI50 values (the concentration of the metal complex causing 50% growth inhibition), TGI value (the concentration of the complex causing 0% cell growth), and LC50 (the concentration of the complex causing 50% cell death) were interpolated from dose–response curves that were plots of percentage cell growth versus concentration of test compounds.

IGROV1 = test: NCI-60 five-dose screen; type: cell-based, human; details: Ovarian cancer
Source text: as §4, §3

purified tubulin = test: Inhibition of tubulin polymerization; type: biochemical; details: read-out: Inhibition of tubulin polymerization IC50 ± SD
Source text: As a reference for comparison, combretastatin A-4 (CA-4) and Cu(HL^1)Cl2 were used.
(§1) The methods used for determination of the IC50 values for tubulin assembly and inhibition of [^3H]colchicine binding were as described previously.[77]

HS 578T = test: NCI-60 five-dose screen; type: cell-based, human; details: Breast cancer
Source text: as §4, §3

[2] = tested on: tubulin (colchicine site); test: Inhibition of [3H]colchicine binding to tubulin; details: tubulin 0.5 μM, [3H]colchicine 5 μM
Source text: as §1

CCRF-CEM = test: NCI-60 five-dose screen; type: cell-based, human; details: Leukemia
Source text: as §4, §3

[3] = Solution stability by UV–vis spectrophotometry; type: physicochemical
[4] = tested on: microtubule system in A549 cancer cells; test: α-Tubulin immunostaining; type: cell-based, human; details: 80 μM, 24 h
Experimental: Since we found remarkable antiproliferative activity exerted by some of the tested compounds by the BrdU assay, and it was also shown that some of the compounds might interfere with tubulin polymerization in cell-free tests, we examined whether the metal complexes or the proligands influence the structure of the microtubule system in A549 cancer cells. For this purpose, the cells were treated with either DMSO, HL^1–HL^3, or with complexes 1, 2, 4 and 5, or were left untreated, followed by α-tubulin immunostaining (Fig. 11). In the untreated samples normal cell morphology and filamentous microtubule structure was observed.
The structure of microtubules was visualized by α-tubulin immunostaining on A549 cells. For this, 5 × 10^4 cells per well were seeded onto coverslips in 24-well plates. […] Then samples were fixed with 4% formaldehyde (Molar Chemicals, Halásztelek, Hungary), permeabilized with 0.3% Triton-X-100 (Calbiochem, Merck Millipore, Darmstadt, Germany) and were blocked using 5% BSA (Sigma-Aldrich, St Louis, Missouri, USA) diluted in PBS. Then the cells were incubated with anti-α-tubulin antibody (Thermo Fisher Scientific, monoclonal mouse antibody, DM1A, Waltham, Massachusetts, USA) in a 1 : 300 dilution in 1% BSA followed by Alexa 488 fluorophore-conjugated goat anti-mouse secondary antibody (Abcam, Cambridge, UK) in a 1 : 600 dilution in 1% BSA. […]

UO-31 = test: NCI-60 five-dose screen; type: cell-based, human; details: Renal cancer
Source text: as §5

CAKI-1 = test: NCI-60 five-dose screen; type: cell-based, human; details: Renal cancer
Source text: as §4, §3

A549 cells = test: BrdU incorporation assay; details: 10 μM, 24 h
Experimental: To test directly the antiproliferative activity of the proligands and of their Co(III) and Fe(III) complexes on A549 cancer cells, non-toxic concentrations of the compounds were applied to the cells, then the 5-bromo-2′-deoxy-uridine (BrdU) incorporation assay was performed (Fig. 10).
The effect of proligands HL^1–HL^3 and of metal complexes 1, 2 and 4, 5 on the proliferation of A549 cells was investigated by the BrdU assay (5-bromo-2′-deoxyuridine Labeling and Detection Kit I, Roche, Cat. No. 11 296 736 001). For this, 3 × 10^4 cells were seeded onto glass coverslips that were placed on 24-well plates, and the cells were left to grow overnight. Next day, when the cells reached about 50% confluence, the samples were treated with 10 μM of each compound or with an equivalent volume of DMSO for 24 h. At this point, BrdU labeling solution was added in a 1 : 1000 dilution, and the incubation continued for 30 min. Then the cells were fixed using 70% ethanol in 50 mM glycine (pH 2.0), and immunofluorescence of adherent cells was measured following the manufacturer's instructions. BrdU incorporation was visualized using an Olympus FV10i confocal microscope.

KM12 = test: NCI-60 five-dose screen; type: cell-based, human; details: Colon cancer
Source text: as §4, §3

NCI-H522 = test: NCI-60 five-dose screen; type: cell-based, human; details: Non-Small Cell Lung Cancer
Source text: as §4, §3

NCI-H460 = test: NCI-60 five-dose screen; type: cell-based, human; details: Non-Small Cell Lung Cancer
Source text: as §4, §3

MDA-MB-231/ATCC = test: NCI-60 five-dose screen; type: cell-based, human; details: Breast cancer
Source text: as §4, §3

TK-10 = test: NCI-60 five-dose screen; type: cell-based, human; details: Renal cancer
Source text: as §5

SW-620 = test: NCI-60 five-dose screen; type: cell-based, human; details: Colon cancer
Source text: as §4, §5

K-562 = test: NCI-60 five-dose screen; type: cell-based, human; details: Leukemia
Experimental: as §2, §3

SNB-19 = test: NCI-60 five-dose screen; type: cell-based, human; details: CNS cancer
Source text: as §4, §5

[5] = tested on: NCI 60 human tumor cell line panel; test: NCI-60 five-dose screen, average across panel; type: cell-based; details: five-dose 0.01–100 μM
Experimental: as §2, §3

SNB-75 = test: NCI-60 five-dose screen; type: cell-based, human; details: CNS cancer
Source text: as §4, §3

OVCAR-3 = test: NCI-60 five-dose screen; type: cell-based, human; details: Ovarian cancer
Source text: as §4, §3

786-0 = test: NCI-60 five-dose screen; type: cell-based, human; details: Renal cancer
Source text: as §4, §3

PC-3 = test: NCI-60 five-dose screen; type: cell-based, human; details: Prostate cancer
Source text: as §5

HOP-62 = test: NCI-60 five-dose screen; type: cell-based, human; details: Non-Small Cell Lung Cancer
Source text: as §4, §3

SF-268 = test: NCI-60 five-dose screen; type: cell-based, human; details: CNS cancer
Source text: as §4, §5

A498 = test: NCI-60 five-dose screen; type: cell-based, human; details: Renal cancer
Source text: as §4, §3

T-47D = test: NCI-60 five-dose screen; type: cell-based, human; details: Breast cancer
Source text: as §4, §3

DU-145 = test: NCI-60 five-dose screen; type: cell-based, human; details: Prostate cancer
Source text: as §5

NCI-H322M = test: NCI-60 five-dose screen; type: cell-based, human; details: Non-Small Cell Lung Cancer
Source text: as §4, §3

RXF 393 = test: NCI-60 five-dose screen; type: cell-based, human; details: Renal cancer
Source text: as §4, §3

## CC(=NN=C([S-])Nc1cc(C)c(O)c(C)c1)c1cccc(CN2CCOCC2)n1.CC(=NN=C([S-])Nc1cc(C)c(O)c(C)c1)c1cccc(CN2CCOCC2)n1.O=[N+]([O-])[O-].[Fe+3] [Complex 4, [Fe^III(L^2)2]NO3]
MOLT-4
  GI50: 2720 nM
HCC-2998
  GI50: 2730 nM
[1]
  reduction by glutathione (GSH): reduction by GSH
RPMI-8226
  GI50: 1810 nM
MDA-MB-468
  GI50: 1560 nM
COLO 205
  GI50: 1530 nM
HOP-92
  GI50: 2540 nM
SF-539
  GI50: 1960 nM
IGROV1
  GI50: 3270 nM
Purified tubulin
  IC50: 3400 ± 60 nM
HS 578T
  GI50: 1960 nM
[2]; 5 μM inhibitor
  Inhibition of colchicine binding, % inhibition ± SD: 3.4 ± 5%
[2]; 25 μM inhibitor
  Inhibition of colchicine binding, % inhibition ± SD: 17 ± 4%
CCRF-CEM
  GI50: 2220 nM
[3]; DMSO and water at pH 7.4
  stability of Fe(III) complexes: slow partial dissociation
[3]; pH 2
  stability of Fe(III) complexes: complete dissociation
[3]; pH 11.7, anoxic conditions
  stability of Fe(III) complexes: the changes were minimal
[4]
  effect on microtubule structure and cell morphology: even greater disruption
UO-31
  GI50: 1660 nM
CAKI-1
  GI50: 3740 nM
A549 cells
  A549 cell proliferation (BrdU incorporation): significantly less BrdU incorporation
KM12
  GI50: 2340 nM
NCI-H522
  GI50: 2070 nM
NCI-H460
  GI50: 1980 nM
MDA-MB-231/ATCC
  GI50: 2440 nM
TK-10
  GI50: 4130 nM
SW-620
  GI50: 2300 nM
K-562
  GI50: 2000 nM
SNB-19
  GI50: 2760 nM
[5]
  average TGI across all cell lines in the panel: 18400 nM
[5]; read-out: average GI50 across all cell lines in the panel
  GI50: 2920 nM
[5]; read-out: average LC50 across all cell lines in the panel
  LC50: 51200 nM
SNB-75
  GI50: 1580 nM
OVCAR-3
  GI50: 1990 nM
786-0
  GI50: 9560 nM
PC-3
  GI50: 2430 nM
HOP-62
  GI50: 2970 nM
SF-268
  GI50: 2360 nM
A498
  GI50: 19800 nM
T-47D
  GI50: 1900 nM
DU-145
  GI50: 6290 nM
NCI-H322M
  GI50: 3260 nM
RXF 393
  GI50: 1950 nM
